Data as given in ChEMBL document CHEMBL1143694, “Fawcettimine-related alkaloids from Lycopodium serratum” (J Nat Prod, 2007).
Active and inactive are the calls of the source. The calls are words filed in the database; no cut-off is given here.

Target: Acetylcholinesterase (Homo sapiens, UniProt P22303)
Assay: Inhibition of AChE by Ellman method

Sequence of Acetylcholinesterase (P22303 whole entry): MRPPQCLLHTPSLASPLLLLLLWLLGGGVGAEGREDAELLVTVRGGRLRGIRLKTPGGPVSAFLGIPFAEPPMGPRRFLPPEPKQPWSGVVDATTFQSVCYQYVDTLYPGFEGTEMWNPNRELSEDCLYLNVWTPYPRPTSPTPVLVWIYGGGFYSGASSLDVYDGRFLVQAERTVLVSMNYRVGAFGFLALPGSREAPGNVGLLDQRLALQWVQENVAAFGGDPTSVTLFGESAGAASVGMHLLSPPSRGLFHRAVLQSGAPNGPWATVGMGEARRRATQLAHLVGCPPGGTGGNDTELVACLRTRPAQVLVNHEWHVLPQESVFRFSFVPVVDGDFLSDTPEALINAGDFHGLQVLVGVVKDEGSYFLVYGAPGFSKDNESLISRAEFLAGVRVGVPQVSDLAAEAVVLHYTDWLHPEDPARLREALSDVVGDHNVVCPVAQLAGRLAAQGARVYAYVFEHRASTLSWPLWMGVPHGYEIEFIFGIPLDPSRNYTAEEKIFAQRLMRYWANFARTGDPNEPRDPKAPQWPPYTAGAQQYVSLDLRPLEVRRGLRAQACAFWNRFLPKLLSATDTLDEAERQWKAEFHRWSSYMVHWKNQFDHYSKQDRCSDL

SMILES | IC50 [µM] | Activity
C[C@H]1C=C2N3CC[C@@H](O)C24[C@H](CC(=O)[C@H]4C[C@H](O)C3)C1 (some centres undefined) | 27.9 | 
C[C@H]1C=C2N3CCC[C@@H]4C(=O)C[C@H](C1)C24[C@H](O)CC3 (some centres undefined) |  | inactive
CC1=C[C@H]2[C@H](O)C(=O)[C@H]3CCCN4CCC[C@H]2[C@]34C1 | 16.7 | 
C[C@H]1C[C@]2(O)N3CC=CC24[C@H](CCC3)C(=O)C[C@@H]4[C@H]1O (some centres undefined) |  | inactive
